{
  "source": "patent US20220220450A1",
  "about": "“FABRICATION OF A BIOMIMETIC PLATFORM SYSTEM AND METHODS OF USE” (Cornell University Center for Technology Licensing, priority 2017, published 2022)",
  "key": {"[1]": {"test_system": "MDA-MB231 cancer cells", "assay": "Doxorubicin response and uptake in 3D-breast component biomimetic platform system with cancer cells", "from_the_text": "Lentivirus transfected human cell lines were selected for use in the biomimetic platform systems disclosed herein. Color selection was randomly assigned to ensure proper differentiation between cell types under fluorescent and confocal microscopy. […] Cancer cell lines, MDA-MB231, MDA-MB468, and HS-578T were transfected with mCherry lentivirus.\nSurgical specimens were obtained. In a sterile biosafety hood, breast specimens were homogeneously minced. Excess lipid was carefully removed from tissue by suction, and minced tissue was mixed on a 1:1 ratio with complete Ham's media containing 1 mg/mL of collagenase Type I and 0.01 mg/mL hyaluronidase (for adipocytes and Adipose derived stem cell (ASC)-containing stromal vascular fraction (SVF) isolation) or 1 mg/mL of collagenase type IA and 0.01 mg/mL hyaluronidase (for isolation of breast organoids).\nThe total amount of 1×M199 media needed for collagen dilution during the neutralization process was reduced by 2504, to allow for the volume needed for reconstitution of cellular components that were added to neutralize collagen. The Collagen platform without breast components was fully diluted by adding 250 microliters of media with desired number of vascular cells (e.g., pericytes), while the biomimetic platform with breast components was diluted by adding 250 μL of MEGM media containing extracted organoids, SVF containing ASCs, and cancer cells. Components were mixed homogeneously into the neutralized collagen, and mature adipocytes were added to the biomimetic platform containing breast stroma at 15% v/v (v/v refers to the volume of the adipocytes+SVF over the total volume of the biocompatible substrate present in the biomimetic platform system described herein).\nBiomimetic constructs were fixed in formaldehyde for 30 minutes followed by 3 consecutive 5-minute Phosphate Buffered Saline (PBS) washes. […] Images were analyzed by confocal microscopy. […]\nConfocal images for doxorubicin response were analyzed using Imaris™ for visualization of 3D image volume. […]"}, "[2]": {"test_system": "HS578T cancer cells", "assay": "Doxorubicin response in 3D-breast component versus 3D-collagen only biomimetic platform system", "assay_type": "cell-based, human", "conditions": "doxorubicin 0-10 μM, FIG. 21A-21D"}, "[3]": {"test_system": "MDA-MB231 cancer cells", "assay": "Doxorubicin response of cancer cells in 3D-collagen only biomimetic platform system", "assay_type": "cell-based, human", "conditions": "0.6% (w/v) collagen, 200,000 MDA-MB231 cells labelled with mCherry; 1-10 μM doxorubicin; FIG. 19B", "protocol": "Images were analyzed by confocal microscopy."}, "[4]": {"test_system": "adipocytes", "assay": "Doxorubicin permeability of 3D-breast component biomimetic platform without cancer cells (BM only)", "assay_type": "cell-based, human", "conditions": "0.6% (w/v) collagen, 15% v/v adipocytes, stromal cells, breast organoids, no cancer cells; increasing doxorubicin concentrations 0-10 μM; FIG. 19C"}, "[5]": {"test_system": "MDA-MB468 cancer cells", "assay": "Doxorubicin response in 3D-breast component versus 3D-collagen only biomimetic platform system", "assay_type": "cell-based, human", "conditions": "doxorubicin 0-10 μM, FIG. 20C"}, "[6]": {"conditions": "0.6% (w/v) collagen, 15% v/v adipocytes, stromal cells, breast organoids, 200,000 MDA-MB231 cells, 1-10 μM doxorubicin, FIG. 19A"}},
  "data": [
    {"smiles": "COc1cccc2c1C(=O)c1c(O)c3c(c(O)c1C2=O)C[C@@](O)(C(=O)CO)C[C@@H]3O[C@H]1C[C@H](N)[C@H](O)[C@H](C)O1", "note": "[doxorubicin]", "values": [
      {"measurement": "absolute number of cells (mCherry and DAPI signals)", "setting": "[1]; [6]", "result": "decrease in the absolute number of cells"},
      {"measurement": "doxorubicin uptake (intrinsic fluorescence signal)", "setting": "[1]; [6]", "result": "uptake was increased"},
      {"measurement": "sensitivity of cancer cells to doxorubicin, 3D-breast component versus 3D-collagen only platform", "setting": "[1]; MDA-MB231, doxorubicin 0-10 μM, FIG. 20A-20B", "result": "decreased sensitivity"},
      {"measurement": "sensitivity of cancer cells to doxorubicin, 3D-breast component versus 3D-collagen only platform", "setting": "[2]", "result": "decreased sensitivity"},
      {"measurement": "absolute number of cells (mCherry and DAPI signals)", "setting": "[3]", "result": "decrease in the absolute number of cells"},
      {"measurement": "permeability of the biomimetic platform and adipocytes to doxorubicin (signal)", "setting": "[4]", "result": "increased signal"},
      {"measurement": "sensitivity of cancer cells to doxorubicin, 3D-breast component versus 3D-collagen only platform", "setting": "[5]", "result": "decreased sensitivity"}
    ]}
  ]
}
